# Measured values published in Sander's compilation of Henry's law constants (doi:10.1021/je960218u).
# Assay: Henry solubility constant Hcp at 298.15 K (mol/(m3 Pa))
# Conditions: reference: Shiu and Mackay (1997)
row,SMILES,Henry solubility constant Hcp
1,"Clc1cccc(Cl)c1Cl [1,2,3-trichlorobenzene]",0.0079
2,CC(C)CO [2-methyl-1-propanol],0.37
3,CCCCCC(C)=O [2-heptanone],0.058
4,c1ccc(-c2ccccc2)cc1 [biphenyl],0.032
5,"Clc1ccc(Cl)cc1 [1,4-dichlorobenzene]",0.0041
6,Brc1ccccc1 [bromobenzene],0.004
7,CCCCCCCO [1-heptanol],0.18
8,Clc1ccccc1 [chlorobenzene],0.0032
9,c1ccc2cc3ccccc3cc2c1 [anthracene],0.13
10,c1ccc2c(c1)ccc1ccccc12 [phenanthrene],0.28
11,Clc1ccc2ccccc2c1 [2-chloronaphthalene],0.03
12,Cc1cccc2ccccc12 [1-methylnaphthalene],0.041
13,Clc1cccc2ccccc12 [1-chloronaphthalene],0.028
14,CC(=O)c1ccccc1 [1-phenylethanone],0.93
15,"Cc1cccc2c(C)cccc12 [1,5-dimethylnaphthalene]",0.028
16,CCCC(C)=O [2-pentanone],0.12
17,"c1ccc2c(c1)Cc1ccccc1-2 [2,3-benzindene]",0.1
18,c1ccc2ccccc2c1 [naphthalene],0.022
19,"Clc1cc(Cl)c(Cl)c(Cl)c1 [1,2,3,5-tetrachlorobenzene]",0.0063
20,c1cc2c3c(cccc3c1)CC2 [acenaphthene],0.062
